# Reference: patent publication US7429670B2 (The Trustees of Columbia University in the City of New York, priority 2003, dated 2008)
# Target: T1, human homomeric α1 GlyR (Homo sapiens, UniProt P23415)
# T1 construct: expressed in transfected cells
# T1 sequence (P23415 29-457): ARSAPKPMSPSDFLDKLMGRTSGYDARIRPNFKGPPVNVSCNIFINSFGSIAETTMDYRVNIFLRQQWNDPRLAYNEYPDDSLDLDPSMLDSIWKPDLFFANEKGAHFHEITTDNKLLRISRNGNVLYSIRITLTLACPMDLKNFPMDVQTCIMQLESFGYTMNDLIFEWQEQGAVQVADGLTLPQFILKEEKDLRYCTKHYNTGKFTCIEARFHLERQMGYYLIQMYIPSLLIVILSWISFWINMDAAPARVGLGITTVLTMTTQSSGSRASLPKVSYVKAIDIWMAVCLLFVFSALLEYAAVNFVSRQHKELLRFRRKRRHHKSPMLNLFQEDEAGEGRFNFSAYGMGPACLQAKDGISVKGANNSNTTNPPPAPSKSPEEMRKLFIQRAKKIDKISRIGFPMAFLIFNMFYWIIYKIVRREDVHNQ
# Assay: Functional glycine receptor assay (FLIPR Membrane Potential Assay)
# Assay type: cell-based
# Design: antagonist activity at GlyR (in words): dose or concentration left out as unconfirmed
# Conditions: 30 uM concentration of test compound
row,Substance,inhibition of glycine responses
1,10-Benzyloxy-isoGC-6-benzoate [Compound 17],39%

# Same assay, conditions: 100 μM test compound; 100 μM glycine-induced response; α1 GlyR-HEK293 cells; Table 2
row,Substance,% inhibition
1,1-(Morpholine-4-carbonyloxy)-10-(4-methoxy-benzyloxy)-GC [Compound 51],NI (Inhibition below 20% is characterized as no inhibition (NI))
2,1-(Morpholine-4-carbonyloxy)-10-benzyloxy-GC [Compound 41],NI (Inhibition below 20% is characterized as no inhibition (NI))
3,1-(Piperidine-carbonyloxy)-10-(4-methoxy-benzyloxy)-GC [Compound 52],NI (Inhibition below 20% is characterized as no inhibition (NI))
4,1-(Piperidine-carbonyloxy)-10-benzyloxy-GC [Compound 42],31%
5,1-Methylcarbamoyloxy-10-(4-methoxy-benzyloxy)-GC [Compound 49],NI (Inhibition below 20% is characterized as no inhibition (NI))
6,1-Methylcarbamoyloxy-10-benzyloxy-GC [Compound 39],NI (Inhibition below 20% is characterized as no inhibition (NI))
7,1-tert-Butylcarbamoyloxy-10-(4-methoxy-benzyloxy)-GC [Compound 50],33%
8,1-tert-Butylcarbamoyloxy-10-benzyloxy-GC [Compound 40],42%
9,7-(Morpholine-4-carbonyloxy)-10-(4-methoxy-benzyloxy)-GC [Compound 46],NI (Inhibition below 20% is characterized as no inhibition (NI))
10,7-(Morpholine-4-carbonyloxy)-10-benzyloxy-GC [Compound 36],NI (Inhibition below 20% is characterized as no inhibition (NI))
11,7-(Piperidine-carbonyloxy)-10-(4-methoxy-benzyloxy)-GC [Compound 47],29%
12,7-(Piperidine-carbonyloxy)-10-benzyloxy-GC [Compound 37],NI (Inhibition below 20% is characterized as no inhibition (NI))
13,7-Methylcarbamoyloxy-10-(4-methoxy-benzyloxy)-GC [Compound 44],NI (Inhibition below 20% is characterized as no inhibition (NI))
14,7-Methylcarbamoyloxy-10-benzyloxy-GC [Compound 34],NI (Inhibition below 20% is characterized as no inhibition (NI))
15,7-tert-Butylcarbamoyloxy-10-(4-methoxy-benzyloxy)-GC [Compound 45],39%
16,7-tert-Butylcarbamoyloxy-10-benzyloxy-GC [Compound 35],29%

# Same assay, conditions: 100 μM test compound; 100 μM glycine-induced response; α1 GlyR-HEK293 cells; Table 3
row,Substance,% inhibition
1,1-(Morpholine-4-carbonyloxy)-GC [Compound 59],NI (Inhibition below 20% is characterized as no inhibition (NI))
2,1-(Piperidine-carbonyloxy)-GC [Compound 60],33%
3,1-Methylcarbamoyloxy-GC [Compound 57],76%
4,1-tert-Butylcarbamoyloxy-GC [Compound 58],71%
5,7-(Morpholine-4-carbonyloxy)-GC [Compound 55],44%
6,7-(Piperidine-carbonyloxy)-GC [Compound 56],34%
7,7-Methylcarbamoyloxy-GC [Compound 53],NI (Inhibition below 20% is characterized as no inhibition (NI))
8,7-tert-Butylcarbamoyloxy-GC [Compound 54],NI (Inhibition below 20% is characterized as no inhibition (NI))

# Same assay, conditions: 100 μM test compound; 100 μM glycine-induced response; α1 GlyR-HEK293 cells; Table 4
row,Substance,% inhibition
1,10-(2-Pyridinyl-methoxy)-GC [Compound 25],75%
2,10-(2-Pyridinyl-methoxy)-GC-7-benzoate [Compound 29],51%
3,10-(4-Methoxy-benzyloxy)-GC [Compound 24],52%
4,10-(4-Methoxy-benzyloxy)-GC-1-benzoate [Compound 28],NI (Inhibition below 20% is characterized as no inhibition (NI))
5,10-(4-Methoxy-benzyloxy)-GC-7-benzoate [Compound 26],35%
6,10-Benzyloxy-GC [Compound 16],59%
7,10-Benzyloxy-GC-1-benzoate [Compound 23],60%
8,10-Benzyloxy-GC-7-benzoate [Compound 21],45%
9,GC-1-benzoate [Compound 32],NI (Inhibition below 20% is characterized as no inhibition (NI))
10,GC-7-benzoate [Compound 30],NI (Inhibition below 20% is characterized as no inhibition (NI))

# Same assay, conditions: 100 μM test compound; response induced by 100 μM glycine; α1 GlyR-HEK293 cells; Table 5
row,Substance,% inhibition
1,"10-(4-Methoxy-benzyloxy)-isoGC-1,6-bisacetate [Compound 20]",36%
2,10-(4-Methoxy-benzyloxy)-isoGC-6-benzoate [Compound 27],49%
3,"10-Benzyloxy-isoGC-1,6-bisacetate [Compound 19]",21%
4,"10-Benzyloxy-isoGC-1,6-bisbenzoate [Compound 22]",42%
5,10-Benzyloxy-isoGC-6-benzoate [Compound 17],90%
6,IsoGC-6-benzoate [Compound 31],63%

# Same assay, conditions: derivatives as printed
row,Substance,antagonist activity at GlyR (in words)
1,GC-1-benzoate [Compound 32],complete loss in activity
2,GC-7-benzoate [Compound 30],complete loss in activity

# Same assay, conditions: derivatives at a concentration of 100 mM; 100 mM glycine
row,Substance,inhibition of the glycine responses
1,1-Methylcarbamoyloxy-GC [Compound 57],ca. 70%
2,1-tert-Butylcarbamoyloxy-GC [Compound 58],ca. 70%
3,10-(2-Pyridinyl-methoxy)-GC [Compound 25],75%
4,10-Benzyloxy-isoGC-6-benzoate [Compound 17],90%
